Numbers after ± are expanded uncertainties.
Experiments:
[1] = Liquid, Vibrating tube method
[2] = xn = mol fraction of the nth substance listed; details: Liquid, Vibrating tube method

`CCCCCCCCCC` [decane] gave a mass density ([1]; 373.2 K, 100 kPa) of 667.1 ± 0.3 kg/m3, a mass density ([1]; 373.2 K, 1000 kPa) of 668.4 ± 0.4 kg/m3 and a mass density ([1]; 373.2 K, 2000 kPa) of 669.6 ± 0.4 kg/m3. For the same compound, the mass density ([1]; 373.2 K, 3000 kPa) was 670.9 ± 0.4 kg/m3, the mass density ([1]; 373.2 K, 4000 kPa) was 672.1 ± 0.4 kg/m3 and the mass density ([1]; 373.2 K, 5000 kPa) was 673.4 ± 0.4 kg/m3. It also gave a mass density ([1]; 373.2 K, 6000 kPa) of 674.5 ± 0.4 kg/m3, a mass density ([1]; 373.2 K, 7000 kPa) of 675.7 ± 0.4 kg/m3 and a mass density ([1]; 373.2 K, 8000 kPa) of 676.9 ± 0.4 kg/m3. It also gave a mass density ([1]; 373.2 K, 9000 kPa) of 678.1 ± 0.4 kg/m3 and a mass density ([1]; 373.2 K, 10000 kPa) of 679.2 ± 0.4 kg/m3.
Compound `CCCCCCCCCC` [decane] + CCCCCCCCCCCCCCCCCC has a mass density ([2]; 373.2 K, 100 kPa, x2 = 0) of 667.1 ± 0.3 kg/m3, a mass density ([2]; 373.2 K, 1000 kPa, x2 = 0) of 668.4 ± 0.4 kg/m3 and a mass density ([2]; 373.2 K, 2000 kPa, x2 = 0) of 669.6 ± 0.4 kg/m3. It also gave a mass density ([2]; 373.2 K, 3000 kPa, x2 = 0) of 670.9 ± 0.4 kg/m3, a mass density ([2]; 373.2 K, 4000 kPa, x2 = 0) of 672.1 ± 0.4 kg/m3 and a mass density ([2]; 373.2 K, 5000 kPa, x2 = 0) of 673.4 ± 0.4 kg/m3. For the same compound, the mass density ([2]; 373.2 K, 6000 kPa, x2 = 0) was 674.5 ± 0.4 kg/m3, the mass density ([2]; 373.2 K, 7000 kPa, x2 = 0) was 675.7 ± 0.4 kg/m3 and the mass density ([2]; 373.2 K, 8000 kPa, x2 = 0) was 676.9 ± 0.4 kg/m3. It also gave a mass density ([2]; 373.2 K, 9000 kPa, x2 = 0) of 678.1 ± 0.4 kg/m3 and a mass density ([2]; 373.2 K, 10000 kPa, x2 = 0) of 679.2 ± 0.4 kg/m3.
For `CCCCCCCCCCCCCCCCCC` [octadecane], the mass density ([1]; 372.9 K, 1010 kPa) was 728.2 ± 0.4 kg/m3, the mass density ([1]; 372.9 K, 2010 kPa) was 729.2 ± 0.4 kg/m3 and the mass density ([1]; 372.9 K, 3020 kPa) was 730.2 ± 0.4 kg/m3. It also gave a mass density ([1]; 372.9 K, 4000 kPa) of 731.1 ± 0.4 kg/m3, a mass density ([1]; 372.9 K, 5000 kPa) of 732 ± 0.4 kg/m3 and a mass density ([1]; 372.9 K, 6020 kPa) of 732.9 ± 0.4 kg/m3. For the same compound, the mass density ([1]; 372.9 K, 7010 kPa) was 733.8 ± 0.4 kg/m3, the mass density ([1]; 372.9 K, 8000 kPa) was 734.7 ± 0.4 kg/m3 and the mass density ([1]; 372.9 K, 8990 kPa) was 735.6 ± 0.4 kg/m3. It also gave a mass density ([1]; 372.9 K, 9980 kPa) of 736.4 ± 0.4 kg/m3.
`CCCCCCCCCCCCCCCCCC` [octadecane] + CCCCCCCCCC showed a mass density ([2]; 372.7 K, 100 kPa, x1 = 0.25) of 689.9 ± 0.3 kg/m3, a mass density ([2]; 372.7 K, 1010 kPa, x1 = 0.25) of 691 ± 0.4 kg/m3 and a mass density ([2]; 372.7 K, 2010 kPa, x1 = 0.25) of 692.2 ± 0.4 kg/m3. For the same compound, the mass density ([2]; 372.7 K, 3020 kPa, x1 = 0.25) was 693.3 ± 0.4 kg/m3, the mass density ([2]; 372.7 K, 4010 kPa, x1 = 0.25) was 694.4 ± 0.4 kg/m3 and the mass density ([2]; 372.7 K, 5010 kPa, x1 = 0.25) was 695.5 ± 0.4 kg/m3. The mass density ([2]; 372.7 K, 6010 kPa, x1 = 0.25) was 696.6 ± 0.4 kg/m3, the mass density ([2]; 372.7 K, 7010 kPa, x1 = 0.25) was 697.7 ± 0.4 kg/m3 and the mass density ([2]; 372.7 K, 8010 kPa, x1 = 0.25) was 698.7 ± 0.4 kg/m3. The mass density ([2]; 372.7 K, 9020 kPa, x1 = 0.25) was 699.8 ± 0.4 kg/m3, the mass density ([2]; 372.7 K, 10010 kPa, x1 = 0.25) was 700.8 ± 0.4 kg/m3 and the mass density ([2]; 372.8 K, 100 kPa, x1 = 0.5) was 705.7 ± 0.4 kg/m3. For the same compound, the mass density ([2]; 372.8 K, 100 kPa, x1 = 0.75) was 717.8 ± 0.4 kg/m3, the mass density ([2]; 372.8 K, 1020 kPa, x1 = 0.5) was 706.8 ± 0.4 kg/m3 and the mass density ([2]; 372.8 K, 1050 kPa, x1 = 0.75) was 718.9 ± 0.4 kg/m3. For the same compound, the mass density ([2]; 372.8 K, 2020 kPa, x1 = 0.5) was 707.8 ± 0.4 kg/m3, the mass density ([2]; 372.8 K, 2020 kPa, x1 = 0.75) was 719.9 ± 0.4 kg/m3 and the mass density ([2]; 372.8 K, 2940 kPa, x1 = 0.5) was 708.7 ± 0.4 kg/m3. For the same compound, the mass density ([2]; 372.8 K, 3000 kPa, x1 = 0.75) was 720.8 ± 0.4 kg/m3, the mass density ([2]; 372.8 K, 4000 kPa, x1 = 0.75) was 721.8 ± 0.4 kg/m3 and the mass density ([2]; 372.8 K, 4010 kPa, x1 = 0.5) was 709.9 ± 0.4 kg/m3. For the same compound, the mass density ([2]; 372.8 K, 5010 kPa, x1 = 0.5) was 710.9 ± 0.4 kg/m3, the mass density ([2]; 372.8 K, 5010 kPa, x1 = 0.75) was 722.8 ± 0.4 kg/m3 and the mass density ([2]; 372.8 K, 6000 kPa, x1 = 0.5) was 711.9 ± 0.4 kg/m3. It also gave a mass density ([2]; 372.8 K, 6000 kPa, x1 = 0.75) of 723.7 ± 0.4 kg/m3, a mass density ([2]; 372.8 K, 7000 kPa, x1 = 0.5) of 712.9 ± 0.4 kg/m3 and a mass density ([2]; 372.8 K, 7010 kPa, x1 = 0.75) of 724.6 ± 0.4 kg/m3. The mass density ([2]; 372.8 K, 8000 kPa, x1 = 0.5) was 713.9 ± 0.4 kg/m3, the mass density ([2]; 372.8 K, 8000 kPa, x1 = 0.75) was 725.5 ± 0.4 kg/m3 and the mass density ([2]; 372.8 K, 8990 kPa, x1 = 0.75) was 726.4 ± 0.4 kg/m3. For the same compound, the mass density ([2]; 372.8 K, 9010 kPa, x1 = 0.5) was 714.8 ± 0.4 kg/m3, the mass density ([2]; 372.8 K, 10010 kPa, x1 = 0.5) was 715.8 ± 0.4 kg/m3 and the mass density ([2]; 372.8 K, 10010 kPa, x1 = 0.75) was 727.4 ± 0.4 kg/m3. It also gave a mass density ([2]; 372.9 K, 1010 kPa, x1 = 1) of 728.2 ± 0.4 kg/m3, a mass density ([2]; 372.9 K, 2010 kPa, x1 = 1) of 729.2 ± 0.4 kg/m3 and a mass density ([2]; 372.9 K, 3020 kPa, x1 = 1) of 730.2 ± 0.4 kg/m3. It also gave a mass density ([2]; 372.9 K, 4000 kPa, x1 = 1) of 731.1 ± 0.4 kg/m3, a mass density ([2]; 372.9 K, 5000 kPa, x1 = 1) of 732 ± 0.4 kg/m3 and a mass density ([2]; 372.9 K, 6020 kPa, x1 = 1) of 732.9 ± 0.4 kg/m3. For the same compound, the mass density ([2]; 372.9 K, 7010 kPa, x1 = 1) was 733.8 ± 0.4 kg/m3, the mass density ([2]; 372.9 K, 8000 kPa, x1 = 1) was 734.7 ± 0.4 kg/m3 and the mass density ([2]; 372.9 K, 8990 kPa, x1 = 1) was 735.6 ± 0.4 kg/m3. It also gave a mass density ([2]; 372.9 K, 9980 kPa, x1 = 1) of 736.4 ± 0.4 kg/m3.
